Activity and inhibition data for one compound are collected here from ChEMBL document CHEMBL3044779, “The action of herbicides on fatty acid biosynthesis and elongation in barley and cucumber” (Pest Manag Sci, 2010).

The test system of test [1] is Hordeum vulgare. Kind of test: Inhibition of fatty acid synthesis in Hordeum vulgare (barley) using [14C]acetate assessed as [14C]-labeled 20C fatty acid level at 300 uM after 3 hr by liquid scintillation counting (reference value: 4.7 +/- 1.6%). The format is functional. On the set-up: scale not given: the % may be the effect or the level left.
For test [2], the system named is Hordeum vulgare. Kind of test: Inhibition of fatty acid synthesis in Hordeum vulgare (barley) using [14C]acetate assessed as [14C]-labeled 22C fatty acid level at 300 uM after 3 hr by liquid scintillation counting (reference value: 5.5 +/- 0.2%). The format is functional. On the set-up: scale not given: the % may be the effect or the level left.
Test [3] has as its system Cucumis sativus. As to the kind of experiment: Inhibition of fatty acid synthesis in Cucumis sativus (cucumber) using [14C]malonate assessed as inhibition of [14C]-labeled 22C fatty acid production at 300 uM after 3 hr by liquid scintillation counting. The format is functional, organism-based.
Test [4] has as its system Hordeum vulgare. Kind of test: Inhibition of fatty acid synthesis in Hordeum vulgare (barley) using [14C]acetate assessed as [14C]-labeled 18C fatty acid level at 300 uM after 3 hr by liquid scintillation counting (reference value: 60.3 +/- 1.3%). The format is functional. On the set-up: scale not given: the % may be the effect or the level left.
Test [5] relates to Cucumis sativus. Kind of test: Inhibition of fatty acid synthesis in Cucumis sativus (cucumber) using [14C]acetate assessed as [14C]-labeled 20C fatty acid level at 300 uM after 3 hr by liquid scintillation counting (reference value: 5.1 +/- 0.7%). The format is functional. On the set-up: scale not given: the % may be the effect or the level left.
Test [6] concerns Hordeum vulgare. Kind of test: Inhibition of fatty acid synthesis in Hordeum vulgare (barley) using [14C]malonate assessed as inhibition of [14C]-labeled 20C fatty acid production at 300 uM after 3 hr by liquid scintillation counting. The format is functional, organism-based.
Test [7] concerns Cucumis sativus. As to the kind of experiment: Inhibition of fatty acid synthesis in Cucumis sativus (cucumber) assessed as inhibition of [14C]acetate incoporation in total fatty acids at 300 uM measured as total disintegration per g of fresh weight after 3 hr by liquid scintillation counting (reference value: 6.4 +/- 1.2 dpm x 10^6 g'1 fresh wt). The format is functional.
Test [8] concerns Cucumis sativus. Kind of test: Inhibition of fatty acid synthesis in Cucumis sativus (cucumber) assessed as inhibition of [14C]malonate incoporation in total fatty acids at 300 uM measured after 3 hr by liquid scintillation counting. The format is functional, organism-based.
Test [9] deals with Cucumis sativus. Kind of test: Inhibition of fatty acid synthesis in Cucumis sativus (cucumber) using [14C]malonate assessed as inhibition of [14C]-labeled 20C fatty acid production at 300 uM after 3 hr by liquid scintillation counting. The format is functional, organism-based.
Test [10] deals with Cucumis sativus. As to the kind of experiment: Inhibition of fatty acid synthesis in Cucumis sativus (cucumber) using [14C]malonate assessed as inhibition of [14C]-labeled 18C fatty acid production at 300 uM after 3 hr by liquid scintillation counting. The format is functional, organism-based.
Test [11] has as its system Hordeum vulgare. Kind of test: Inhibition of fatty acid synthesis in Hordeum vulgare (barley) using [14C]malonate assessed as inhibition of [14C]-labeled 24C fatty acid production at 300 uM after 3 hr by liquid scintillation counting. The format is functional, organism-based.
The subject of test [12] is Hordeum vulgare. As to the kind of experiment: Inhibition of fatty acid synthesis in Hordeum vulgare (barley) using [14C]acetate assessed as [14C]-labeled 16C fatty acid level at 300 uM after 3 hr by liquid scintillation counting (reference value: 29.5 +/- 1.3%). The format is functional. On the set-up: scale not given: the % may be the effect or the level left.
Test [13] concerns Hordeum vulgare. As to the kind of experiment: Inhibition of fatty acid synthesis in Hordeum vulgare (barley) assessed as inhibition of [14C]acetate incoporation in total fatty acids at 300 uM measured as total disintegration per g of fresh weight after 3 hr by liquid scintillation counting (reference value: 5.7 +/- 0.5 dpm x 10^6 g'1 fresh wt). The format is functional.
The subject of test [14] is Hordeum vulgare. Kind of test: Inhibition of fatty acid synthesis in Hordeum vulgare (barley) using [14C]malonate assessed as inhibition of [14C]-labeled 16C fatty acid production at 300 uM after 3 hr by liquid scintillation counting. The format is functional, organism-based.
In test [15] the test system is Hordeum vulgare. Kind of test: Inhibition of fatty acid synthesis in Hordeum vulgare (barley) using [14C]malonate assessed as inhibition of [14C]-labeled 18C fatty acid production at 300 uM after 3 hr by liquid scintillation counting. The format is functional, organism-based.
Test [16] concerns Cucumis sativus. As to the kind of experiment: Inhibition of fatty acid synthesis in Cucumis sativus (cucumber) using [14C]acetate assessed as [14C]-labeled 24C fatty acid level at 300 uM after 3 hr by liquid scintillation counting (reference value: 6.5 +/- 1%). On the set-up: scale not given: the % may be the effect or the level left. The format is functional.
For test [17], the system named is Cucumis sativus. Kind of test: Inhibition of fatty acid synthesis in Cucumis sativus (cucumber) using [14C]acetate assessed as [14C]-labeled 22C fatty acid level at 300 uM after 3 hr by liquid scintillation counting (reference value: 17.9 +/- 2.5%). The format is functional. On the set-up: scale not given: the % may be the effect or the level left.
In test [18] the test system is Cucumis sativus. Kind of test: Inhibition of fatty acid synthesis in Cucumis sativus (cucumber) using [14C]acetate assessed as [14C]-labeled 16C fatty acid level at 300 uM after 3 hr by liquid scintillation counting (reference value: 29.2 +/- 3.5%). The format is functional. On the set-up: scale not given: the % may be the effect or the level left.
The subject of test [19] is Cucumis sativus. As to the kind of experiment: Inhibition of fatty acid synthesis in Cucumis sativus (cucumber) using [14C]acetate assessed as [14C]-labeled 18C fatty acid level at 300 uM after 3 hr by liquid scintillation counting (reference value: 41.2 +/- 1.1%). The format is functional. On the set-up: scale not given: the % may be the effect or the level left.
For test [20], the system named is Cucumis sativus. As to the kind of experiment: Inhibition of fatty acid synthesis in Cucumis sativus (cucumber) using [14C]malonate assessed as inhibition of [14C]-labeled 24C fatty acid production at 300 uM after 3 hr by liquid scintillation counting. The format is functional, organism-based.
In test [21] the test system is Hordeum vulgare. Kind of test: Inhibition of fatty acid synthesis in Hordeum vulgare (barley) using [14C]malonate assessed as inhibition of [14C]-labeled 22C fatty acid production at 300 uM after 3 hr by liquid scintillation counting. The format is functional, organism-based.
For test [22], the system named is Hordeum vulgare. Kind of test: Inhibition of fatty acid synthesis in Hordeum vulgare (barley) assessed as inhibition of [14C]malonate incoporation in total fatty acids at 300 uM measured after 3 hr by liquid scintillation counting. The format is functional, organism-based.
The subject of test [23] is Cucumis sativus. As to the kind of experiment: Inhibition of fatty acid synthesis in Cucumis sativus (cucumber) using [14C]malonate assessed as inhibition of [14C]-labeled 16C fatty acid production at 300 uM after 3 hr by liquid scintillation counting. The format is functional, organism-based.

Activity calls are given as the source filed them. No cut-off for these calls is given here.

Turning to `CN(C)C(=O)C(c1ccccc1)c1ccccc1` [DIPHENAMIDE], the Activity is 7.9% in the test with Hordeum vulgare [1]; 7.6% in the test with Hordeum vulgare [2]; 66.1% in the test with Hordeum vulgare [4]; 6.1% with Cucumis sativus [5]; 6.9 ×10⁶ dpm in the test on Cucumis sativus [7]; 18.4% in the test with Hordeum vulgare [12]. Also, the Activity in the test on Hordeum vulgare [13] is 4 ×10⁶ dpm; in the test with Cucumis sativus [16], 5.1%; in the test on Cucumis sativus [17] it was 13.9%; in the test on Cucumis sativus [18] it was 26.8%; in the test with Cucumis sativus [19] it was 48.1%. Further, the inhibition entry with Cucumis sativus [3], with Hordeum vulgare [6], with Cucumis sativus [8], in the test on Cucumis sativus [9], in the test with Cucumis sativus [10] and in the test on Hordeum vulgare [11] was “inactive” throughout. The inhibition entry in the test with Hordeum vulgare [14], in the test with Hordeum vulgare [15], in the test on Cucumis sativus [20], in the test with Hordeum vulgare [21], in the test with Hordeum vulgare [22] and in the test with Cucumis sativus [23] was “inactive” each time.
